Entries after “also recorded” stand apart in the source; their conditions may differ.
Assays:
[1] = tested on: bovine retinal pericytes (BRPC); experiment: Cell growth assay (DNA content, cell number) in bovine retinal pericytes; type: cell-based; details: for stimulation of proliferation: 5, 10 or 15% FBS
Experimental: (§1) A cell growth assay was performed as follows: Cells were plated onto 12-well culture plates and incubated overnight. The cells were treated with vehicle, vascular endothelial growth factor (VEGF, R & D Systems, Minneapolis, Minn.) at 25 ng/ml, serum, compounds, or combinations thereof. The medium is changed during the incubation period, with fresh medium and fresh test compound added every 2 days. After incubation for indicated time period at 37° C., the cells were lysed in 0.1% SDS and DNA content was measured by means of Hoechst-33258 dye and a fluorometer (model TKO-100, Hoefer Scientific Instruments, San Francisco, Calif.). It has been shown that total cellular DNA content measured in this manner correlates closely with actual cell number as determined by hemocytometer counting of trypsinized cells.
(§2) Determinations were performed in triplicate and all experiments were repeated at least three times. Results are expressed as the mean ±standard deviation, unless otherwise indicated. Statistical analysis employed Student's t-test or analysis of variance to compare quantitative data populations with normal distributions and equal variance. Data were analyzed using the Mann-Whitney rank sum test or the Kruskal-Wallis test for populations with non-normal distributions or unequal variance. A P-value of <0.05 was considered statistically significant.
Primary cultures of bovine retinal pericytes (BRPC) were isolated by homogenization and a series of filtration steps as described in King et al., J. Clin. Invest., 1985, 75:1028-36. BRPC were cultured in Dulbecco's modified Eagle's medium (DMEM, Gibco BRL, Grand Island, N.Y.) with 5.5 mM glucose and 20% fetal bovine serum (FBS, Gibco BRL, Grand Island, N.Y.). Cells were characterized for homogeneity by their immunoreactivity with monoclonal antibody 3G5 [Nayak et al., J. Exp. Med. 1988, 167:1003-15]. Cells remained morphologically unchanged under these conditions, as confirmed by light microscopy. Only cells from passages 2 through 7 were used for the experiments.
A cell growth assay was performed as described above in Example 1 and the medium was changed, with fresh medium and fresh test compound added every 2 or 3 days, preferably every 2 days. […] At 20% FBS a six to seven fold increase of total DNA was detected.

[2] = tested on: bovine retinal endothelial cells (BREC); experiment: Cell growth assay (DNA content) in bovine retinal endothelial cells; type: cell-based
Experimental: Primary cultures of bovine retinal endothelial cells (BREC) were isolated by homogenization and a series of filtration steps as described in King et al., J. Clin. Invest., 1985, 75:1028-36. BREC were subsequently cultured with endothelial cell basal medium (EBM; Clonetics, San Diego, Calif.). supplemented with 10% plasma-derived horse serum (PDHS), 50 mg/l heparin, and 50 μg/ml endothelial cell growth factor (ECGF, Roche, Indianapolis, Ind.). Cells were characterized for homogeneity by their immunoreactivity with anti-factor VIII antibody. Cells remained morphologically unchanged under these conditions, as confirmed by light microscopy. Only cells from passages 2 through 7 were used for the experiments.
as §1, §2

[3] = tested on: MAP kinase phosphorylation; experiment: MAP kinase phosphorylation in BRPC; type: cell-based, bovine; details: 5 μg/ml, 1 to 60 minutes
Experimental: Experiments were also performed in which the level of MAP kinase phosphorylation was determined in BRPC treated with 75 μg/ml rBPI21 or 5 μg/ml XMP.679. […] These observations indicate that exemplary BPI protein products rBPI21 and, to a lesser extent, XMP.679, enhance MAP kinase phosphorylation in BRPC.

[4] = tested on: human retinal pericytes (HRPC); experiment: Human retinal pericyte proliferation assay (Methylene blue, OD650); type: cell-based; details: 5% FBS
Experimental: In addition to studies with primary cell cultures of bovine retinal pericytes described above, experiments were performed with a human cell line obtained from Clonetics (San Diego, Calif.) of retinal pericytes (catalog no. CC-2542 PyCRt). These human retinal pericytes (HRPC) were cultured in Dulbecco's modified Eagle's medium (DMEM, Gibco BRL, Grand Island, N.Y.) with 5.6 mM glucose and 20% fetal bovine serum (FBS, Gibco BRL, Grand Island, N.Y.).
Proliferation assays were performed as follows: HRPC were plated onto 24-well culture plates (3000 cells/well) in 5 or 10% FBS-DMEM with 5.6 mM glucose and incubated overnight. The cells were treated once with vehicle alone or with vehicle and several concentrations of XMP.627 ([SEQ ID NO: 4]), XMP.664 ([SEQ ID NO: 5]), XMP.679 ([SEQ ID NO: 3]), or XMP.728 ([SEQ ID NO: 6]) for 5 or 6 days. The medium was not changed, nor were additional amounts of test compounds added as described in the experiments of part A above. The cells were fixed and stained with Methylene blue and proliferation assayed by observation at OD650.

[5] = tested on: Bovine retinal pigment epithelial cells (RPEC); experiment: Cell growth assay in bovine retinal pigment epithelial cells; type: cell-based; details: 15 μg/ml
Experimental: as §1
Bovine retinal pigment epithelial cells (RPEC) were isolated by gentle scraping after removal of the neural retina and incubation with 0.2% collagenase as described in King et al., Diabetes, 1987, 36:1460-7. RPEC were cultured in DMEM with 5.5 mM glucose and 10% calf serum (CS, Gibco BRL, Grand Island, N.Y.). Cells were cultured in 5% CO2 at 37° C., and media were changed every other days. Cells were characterized for their homogeneity by immunoreactivity with anti-cytokeratin antibody for RPEC. […]

“XMP.679: BPI-derived peptide derived from BPI domain II, SEQ ID NO: 3 (KLFKAQAKAKG; XMP.679; listed as Homo sapiens)” was tested, and the stimulation of proliferation ([1]; 5 μg/mL) was ~2 fold, the “growth increase as potency of 20% FBS” value ([1]; 5 μg/ml, 5% FBS) was 30 to 40% and the “growth compared with 20% FBS” value ([1]; 5 μg/ml, 10% FBS) was “equaled the effect of 20% FBS”. For the same substance, the retinal pericyte proliferation ([1]; 5 μg/ml, 10% FBS) was “greatest increase”, the “growth compared with 15 or 20% FBS (trend)” value ([1]; 5 μg/ml, 15% FBS) was “may have more growth effect than either 15 or 20% FBS” and the stimulation of proliferation ([1]; 15 μg/mL) was “no enhancement”. For the same substance, the effect on growth ([1]; 15 μg/ml (higher concentration), 5% FBS, 3 or 6 days) was “did not increase growth; also recorded: did not show-a growth stimulating effect”, the effect on growth ([1]; 15 μg/ml, 10% FBS) was “did not have much growth effect” and the retinal pericyte proliferation ([1]; 20 μg/ml, 10% FBS) was “did not”. For the same substance, the “pericyte DNA content” value ([1]; 1, 5, 10, and 15 μg/ml, 10% FBS) was “Statistically significant increases”, the effect on growth ([1]; 1 or 5 μg/ml, 5% FBS, 6 days) was “increased growth” and the effect on growth ([1]; 15% FBS, concentration not given) was “did not increase the growth of pericyte in 15% FBS to any significant amount”. For the same substance, the “effect on DNA content” value ([2]; 1 μg/ml compound, with and without VEGF) was “did not have a significant effect”, the “effect on VEGF-dependent growth” value ([2]; VEGF 25 ng/ml plus 1 μg/ml compound) was “had no effect” and the “effect on VEGF-dependent growth” value ([2]; VEGF 25 ng/ml plus 5 and 15 μg/ml compound) was “totally prevented VEGF-dependent growth”. For the same substance, the effect on growth ([2]; compound alone, 15 μg/ml, not statistically significant) was “slight growth inhibitory effect”, the “effect on MAP kinase phosphorylation” value [3] was “increased MAP kinase phosphorylation over time” and the “effect on HRPC growth” value ([4]; 10 μg/ml and higher) was “slight growth inhibitory effect”. For the same substance, the “concentration of maximum HRPC proliferation” value [4] was “approximately 5 μg/ml”, the “effect on HRPC proliferation” value ([4]; approximately 0.5, 1, 5, 8 μg/ml) was “increased HRPC proliferation in a dose responsive manner” and the growth promoting effect [5] was 20 to 30%.
